In patent US4430355A, “Condensed isothiazolo-3 (2H)-one-1-1-dioxides” (priority 1977, dated 1984):
Like-named read-outs stand apart in the source and are kept apart here.

Key:
mouse = assay: Orienting acute toxicity, oral, mouse; format: in vivo; conditions: 6 animals
Description: The acute toxicity was determined after oral administration to male and female mice and to male and female rats. The substances were given in an aqueous solution or as a suspension in tylose.

[1] = Determination of the relative sweetening power in comparison to saccharose (taste testers, 3% saccharose solution)
Description: The relative sweetening power (often also defined as degree of sweetness) of sweetening agents in comparison to saccharose (cane sugar) varies with the concentrations within wide limits. Thus, in the usual concentrations (corresponding to a 2-10% solution of saccharose) the relative sweetening power of saccharin varies from 200 to 700. Therefore, for the determination of the relative sweetening power of the above-mentioned compounds a 3% aqueous solution of saccharose was always used for comparison.
The further determination of the relative sweetening power was continued according to the methods of R. Pauli [Chemiker Zeitung 44, 744 (1920)] and T. Paul [Chemiker-Zeitung 45 38 (1921)]. Each test series was tested by 4 taste testers.

[2] = Determination of the threshold concentration (taste testers, Schutz and Pilgrim method); parameters: key: mean of 5 testers; 0 = not sweet, 3 = very sweet
Description: From novel compounds A, B, C, D, E and F and from known comparison compounds U, V and W aqueous solutions in concentrations of 1:12500, 1:25000, 1:50000, 1:100000 and 1:200000 were prepared and evaluated by each of 5 taste testers according to the following criteria: Very sweet (=3 points); medium sweet (=2 points), slightly sweet (=1 point) and not sweet (=0 point). The tests were carried out according to the method of H. G. Schutz and F. J. Pilgrim [Food Research 22, 206 (1957)]. The dilution with perceptible sweetness was defined as the concentration at which the average value reached the evaluation points 1.0 or higher.

[3] = Evaluation of taste quality
Description: They often have a side-taste or after-taste. Novel compounds A to F are, however, characterized by a very pure sweet taste.

[4] = tested on: Salmonella typhimurium TA 98, TA 100, TA 1535, TA 1537, TA 1538; assay: AMES-system, test for mutagenic effects, Salmonella typhimurium; format: cell-based
Description: Compounds C and D were tested in the AMES-system [Mutation Research 31, 347-364 (1975)] with regard to their mutagenic properties. In order to show the whole spectrum of induced molecular DNA-damages (base substitutions, frame-shift mutations, deletions) the auxotrophic bacterial strains Salmonella typhimurium TA 98, TA 100 and Escherichia coli WP 2 (P) were used as genetic indicators. The strains Salmonella typhimurium TA 1535, TA 1537 and TA 1538 were additionally used in the test of compound C.
The test for all microorganisms were carried out in a way such that the influence of a microsomal enzyme system, together with the corresponding co-factors, could be tested with regard to the test substance, and to determine the differences in enzyme induction. The tests were performed without an activating system and in the presence of an activating system. For the in vitro-activation, S-9 supernatants (fraction of the endoplasmatic reticulum) of normal, i.e. not pre-treated rats and of Aroclor 1254 (500 mg/kg) induced rats were used. From the S-9 induced fraction, 3 different concentration levels were tested.
(§1) The substance concentrations of compound C were 0.1 and 0.5 mgm/plate and the concentrations of compound D were 5, 10, 15 and 20 mg/plate.

microorganism growth = assay: Series dilution essay, inhibition of the microorganism growth; format: cell-based; conditions: highest dosages (C 0.5 mgm/plate, D 20 mg/plate)
Description: as §1

[5] = tested on: Escherichia coli WP 2 (P); assay: AMES-system, test for mutagenic effects, Escherichia coli; format: cell-based
Description: In order to show the whole spectrum of induced molecular DNA-damages (base substitutions, frame-shift mutations, deletions) the auxotrophic bacterial strains Salmonella typhimurium TA 98, TA 100 and Escherichia coli WP 2 (P) were used as genetic indicators.
The test for all microorganisms were carried out in a way such that the influence of a microsomal enzyme system, together with the corresponding co-factors, could be tested with regard to the test substance, and to determine the differences in enzyme induction. The tests were performed without an activating system and in the presence of an activating system. […] From the S-9 induced fraction, 3 different concentration levels were tested.

[6] = higher dosage levels; cited from earlier work
[7] = value given on page 6 of German Offenlegungsschrift 2,534,689; cited from earlier work
[8] = compared with 3% aqueous solution of saccharose

## Cc1cc2c(o1)S(=O)(=O)NC2=O [A, 5-Methyl-furo[3,2-d]isothiazole-3-(2H)-one-1,1-dioxide]
mouse; 1000 mgm/kg oral
  Animals which died within the observation time, 1 day: 0 animals
  Animals which died within the observation time, 7 days: 0 animals
[1]; [8]
  Relative Sweetening Power (Saccharose = 1): 150
[2]; concentration 1:12500
  Average Value of Evaluation Points: 1.4
[2]; concentration 1:25000
  Average Value of Evaluation Points: 0.2
[3]
  taste quality compared with saccharose (cane sugar): achieve the taste quality of saccharose

## Cc1cc2c(s1)S(=O)(=O)NC2=O [B, 5-Methyl-thieno[3,2-d]isothiazole-3(2H)-one-1,1-dioxide]
mouse; 5000 mgm/kg oral
  Animals which died within the observation time, 1 day: 0 animals
  Animals which died within the observation time, 7 days: 0 animals
[1]; [8]
  Relative Sweetening Power (Saccharose = 1): 550
[2]; concentration 1:25000
  Average Value of Evaluation Points: 2.2
[2]; concentration 1:50000
  Average Value of Evaluation Points: 1.4
[2]; concentration 1:100000
  Average Value of Evaluation Points: 0.2

## Cc1cc2c(s1)S(=O)(=O)NC2=O.[Ca] [D, 5-Methyl-thieno[3,2-d]isothiazole-3(2H)-one-1,1-dioxide calcium salt]
mouse; 5000 mgm/kg oral
  Animals which died within the observation time, 1 day: 0 animals
  Animals which died within the observation time, 7 days: 0 animals
[4]; S. typhimurium TA 1535, TA 100
  release of base substitutions: do not release base substitutions
[4]; S. typhimurium TA 1537, TA 1538, TA 98
  release of frame-shift mutations: do not release
[4]; Salmonella strains, C 0.1 and 0.5 mgm/plate, D 5-20 mg/plate, with and without activating system
  increase in the spontaneous mutation rate: did not lead to an increase
[4]; all test strains
  colonies counted on the substance plates: within the spontaneous range
[4]; all tested strains, S-9 of normal and Aroclor 1254 induced rats
  effect of the enzyme induction and of the activating fraction on the reverse mutation rate: not detectable
[4]; conclusion over all tested strains
  mutagenic potential: do not indicate a mutagenic potential
Microorganism growth
  inhibition of the microorganism growth: did not show any inhibition
[1]; [8]
  Relative Sweetening Power (Saccharose = 1): 500
[2]; concentration 1:25000
  Average Value of Evaluation Points: 1.8
[2]; concentration 1:50000
  Average Value of Evaluation Points: 1.0
[2]; concentration 1:100000
  Average Value of Evaluation Points: 0.0
[5]; E. coli WP2 (P)
  release of base substitutions: do not release base substitutions
[5]; E. coli WP 2 (P), C 0.1 and 0.5 mgm/plate, D 5-20 mg/plate, with and without activating system
  increase in the spontaneous mutation rate: did not lead to an increase

## Cc1sc2c(c1C)C(=O)NS2(=O)=O [E, 4,5-Dimethyl-thieno[3,2-d]isothiazole-3(2H)-one-1,1-dioxide]
mouse; 1000 mgm/kg oral
  Animals which died within the observation time, 1 day: 0 animals
  Animals which died within the observation time, 7 days: 0 animals
[1]; [8]
  Relative Sweetening Power (Saccharose = 1): 1050
[2]; concentration 1:50000
  Average Value of Evaluation Points: 2.2
[2]; concentration 1:100000
  Average Value of Evaluation Points: 1.6
[2]; concentration 1:200000
  Average Value of Evaluation Points: 0.4

## Cc1sc2c(c1C)C(=O)NS2(=O)=O.[Na] [F, 4,5-Dimethyl-thieno[3,2-d]isothiazole-3(2H)-one-1,1-dioxide sodium salt]
[1]; [8]
  Relative Sweetening Power (Saccharose = 1): 1000
[2]; concentration 1:50000
  Average Value of Evaluation Points: 2.0
[2]; concentration 1:100000
  Average Value of Evaluation Points: 1.4
[2]; concentration 1:200000
  Average Value of Evaluation Points: 0.2

## O=S(=O)(O)NC1CCCCC1 [U, Cyclamate, reference compound]
[1]
  Relative Sweetening Power (Saccharose = 1): 60
[6]
  safety as sweetening agent: not entirely safe
[2]; concentration 1:12500
  Average Value of Evaluation Points: 0.4

## O=C1NS(=O)(=O)c2ccccc21.[Na] [W, Saccharin sodium, reference compound]
[1]; [8]
  Relative Sweetening Power (Saccharose = 1): 550
[2]; concentration 1:25000
  Average Value of Evaluation Points: 2.2
[2]; concentration 1:50000
  Average Value of Evaluation Points: 1.2
[2]; concentration 1:100000
  Average Value of Evaluation Points: 0.0

## O=C1NS(=O)(=O)c2sccc21 [X, Thieno[3,2-d]isothiazole-3(2H)-one-1,1-dioxide]
[7]
  Relative Sweetening Power (Saccharose = 1): 350
